# Laboratory results published in patent US10631541B1, “Nitrogen-15 isotope as a plant growth regulator” (Floratine Products Group, Inc, priority 2016, dated 2020).
# Assays:
# [1] = system: Annual Rye; test: Laboratory trial: Annual Rye seeds in trays of potting soil, sprayed every other day; type: in vivo; settings: averages of 74 plants per tray after 1 week; for Root Length, percent inc (versus sugar solution): increase over sugar solution (2.9 cm); for Blade Length, percent increase (versus sugar solution): increase over sugar solution (6.3 cm); for Blade Length / Root Length: ingredient added to standard sugar solution (Ni 0.003% w/w, Co 0.003% w/w, nitrogen-15 0.00001% w/w), spray 12 ml per square meter every other day
# Experimental: Some characteristics of the plant growth regulating composition according to the invention are illustrated by the following examples. The laboratory trial involved planting Annual Rye seeds in trays of commercially available potting soil. The seed density on the trays was 358 grams per square meter. The volume of each spray was 12 ml per square meter after the grass emerged. The spray frequency was every other day. The following ingredients were added at these concentrations to a standard sugar solution: Ni 0.003% w/w (Nickel), Co 0.003% w/w (cobalt) and nitrogen-15 0.00001% w/w.
# [2] = system: Common Bermuda; test: Trial on turf, sprayed once with nitrogen-15 spray solutions; type: in vivo
# Experimental: A trial on turf was conducted on Common Bermuda. The turf was sprayed once with spray solutions that contained four concentrations of nitrogen-15 ammonium sulfate. The concentrations ranged from: 0.001% though 0.004% w/w. The nitrogen-15 was mixed with a sugar solution as in the laboratory trial.
molecule,measurement,setting,value
"[Co] [Co, cobalt]","Root Length, percent inc (versus sugar solution)",[1],41.40%
same,"Blade Length, percent increase (versus sugar solution)",[1],11.10%
same,Blade Length,[1],7.0 cm
same,Root Length,[1],4.1 cm
"[Ni] [Ni, Nickel]","Root Length, percent inc (versus sugar solution)",[1],41.40%
same,"Blade Length, percent increase (versus sugar solution)",[1],15.90%
same,Blade Length,[1],7.3 cm
same,Root Length,[1],4.1 cm
O=S(=O)(O)O.[15NH3].[15NH3] [nitrogen-15 ammonium sulfate],visual color of turf plot,"[2]; plot sprayed once with 0.004% w/w in sugar solution, four concentrations 0.001% through 0.004% w/w compared",darkest green
same,Percent increase in leaf length,"[2]; turf sprayed once, 0.001% through 0.004% w/w in sugar solution",the same as the laboratory trial
Nitrogen-15,"Root Length, percent inc (versus sugar solution)",[1],20.70%
same,"Blade Length, percent increase (versus sugar solution)",[1],25.40%
same,Blade Length,[1],7.9 cm
same,Root Length,[1],3.5 cm
